Patent publication US20130315843A1, “COMPOSITION FOR REDUCTION OF TRPA1 AND TRPV1 SENSATIONS” (priority 2012, published 2013)
Read-outs that look alike come from different tables or passages of the source.

Target: human TRPA1 (Homo sapiens, UniProt O75762)
Assay: FLIPR Ca2+ assay, reduction of hydrogen peroxide activation of TRPA1
Type: cell-based
Set-up: expressed in transfected cells
Description: After centrifugation, a pellet of cells was formed in the bottom of the tube separating them from the supernatant solution.
The pelleted cells were re-suspended in 10 ml assay buffer and 90 μl aliquots (˜50,000 cells) per well delivered to a 96-well assay plate containing 10 μl of test compounds ([…]) or buffer control and incubated at room temperature for 30 minutes.

[1] = 100 μM antagonist vs 500 μM hydrogen peroxide
[2] = compound 100 μM against 200 μM hydrogen peroxide, Sets 1-4
[3] = compound 100 μM against 200 μM hydrogen peroxide, Sets 1-4, read-out: % Reduction of Hydrogen Peroxide TRPA1 Activation
[4] = read-out: % Reduction of Hydrogen Peroxide TRPA1 Activation

Sequence of human TRPA1 (O75762 whole entry): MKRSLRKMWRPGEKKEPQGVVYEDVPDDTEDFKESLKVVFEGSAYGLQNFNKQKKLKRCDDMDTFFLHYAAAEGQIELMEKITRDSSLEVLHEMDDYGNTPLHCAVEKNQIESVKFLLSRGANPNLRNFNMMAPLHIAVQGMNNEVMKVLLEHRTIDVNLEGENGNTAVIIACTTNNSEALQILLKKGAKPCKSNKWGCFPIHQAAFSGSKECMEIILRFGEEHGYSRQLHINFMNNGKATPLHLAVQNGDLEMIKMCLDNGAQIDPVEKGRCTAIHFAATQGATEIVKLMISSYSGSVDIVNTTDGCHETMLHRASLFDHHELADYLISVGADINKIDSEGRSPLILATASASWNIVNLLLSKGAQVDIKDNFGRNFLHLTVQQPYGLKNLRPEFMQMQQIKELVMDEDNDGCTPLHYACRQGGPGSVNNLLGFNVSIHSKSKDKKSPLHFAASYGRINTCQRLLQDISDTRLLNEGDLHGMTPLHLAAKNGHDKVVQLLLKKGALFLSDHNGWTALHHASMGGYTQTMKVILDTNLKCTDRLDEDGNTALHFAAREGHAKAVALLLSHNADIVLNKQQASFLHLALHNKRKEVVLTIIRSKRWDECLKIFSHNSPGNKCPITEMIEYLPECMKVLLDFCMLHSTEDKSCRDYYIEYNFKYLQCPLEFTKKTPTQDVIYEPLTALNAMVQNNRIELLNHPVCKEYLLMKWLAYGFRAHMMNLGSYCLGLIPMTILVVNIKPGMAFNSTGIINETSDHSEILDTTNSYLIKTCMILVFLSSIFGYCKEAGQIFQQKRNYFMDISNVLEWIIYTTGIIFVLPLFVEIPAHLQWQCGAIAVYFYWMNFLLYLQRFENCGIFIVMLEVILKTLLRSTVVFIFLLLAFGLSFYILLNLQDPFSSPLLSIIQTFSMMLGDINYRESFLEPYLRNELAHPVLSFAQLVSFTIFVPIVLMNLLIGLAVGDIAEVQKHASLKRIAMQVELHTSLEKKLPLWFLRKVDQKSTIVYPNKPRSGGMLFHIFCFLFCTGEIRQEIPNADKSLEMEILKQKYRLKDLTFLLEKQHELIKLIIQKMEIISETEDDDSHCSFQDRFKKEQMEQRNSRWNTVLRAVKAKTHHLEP

C/C=C(\C)C(=O)OCc1ccccc1 [benzyl tiglate]
Block of hydrogen peroxide activation of TRPA1 [1]: BLOCK ONLY H2O2/TRPA1
Average Ca++ Counts [2]: 2385.0 Counts
inhibition at 100 µM [3]: 59.4%

CC=CC(=O)O [but-2-enoic acid]
Block of hydrogen peroxide activation of TRPA1 [1]: BLOCK ONLY H2O2/TRPA1
Average Ca++ Counts [2]: 5193.0 Counts
inhibition at 100 µM [3]: 51%

CCCCOC(=O)C(C)O (centres unmarked) [butyl lactate]
Block of hydrogen peroxide activation of TRPA1 [1]: BLOCK ONLY H2O2/TRPA1
Average Ca++ Counts [2]: 5157.0 Counts
inhibition at 100 µM [3]: 51.3%

CCCC=O [butyraldehyde]
Block of hydrogen peroxide activation of TRPA1 [1]: BLOCK ONLY H2O2/TRPA1
Average Ca++ Counts [2]: 4725.5 Counts
inhibition at 100 µM [3]: 55.4%

Cc1ccc(C(C)C)cc1O [carvacrol]
Average Ca++ Counts: 3464.5 Counts
inhibition at 100 µM [4]: 50.8%

CCC(C)(O)CCc1ccccc1 (stereo not drawn) [ethyl methyl beta-phenylethyl carbinol]
Block of hydrogen peroxide activation of TRPA1 [1]: BLOCK ONLY H2O2/TRPA1
Average Ca++ Counts [2]: 2253.5 Counts
inhibition at 100 µM [3]: 68%

CC12CCC(C1)C(C)(C)C2=O (centres unmarked) [fenchone]
Block of hydrogen peroxide activation of TRPA1 [1]: BLOCK ONLY H2O2/TRPA1
Average Ca++ Counts [2]: 2761.5 Counts
inhibition at 100 µM [3]: 60.8%

[Cl][Fe]([Cl])[Cl] [ferric chloride]
Block of hydrogen peroxide activation of TRPA1 [1]: BLOCK ONLY H2O2/TRPA1
% Reduction of Hydrogen Peroxide TRPA1 Activation [2]: 53.3%
Average Ca++ Counts [2]: 3287.0 Counts

CC1=CCC(C(C)C)=CC1 [gamma-terpinene]
Block of hydrogen peroxide activation of TRPA1 [1]: BLOCK ONLY H2O2/TRPA1
Average Ca++ Counts [2]: 3124.0 Counts
inhibition at 100 µM [3]: 55.6%

CC(=O)C(=O)OCCC(C)C [isoamyl pyruvate]
Block of hydrogen peroxide activation of TRPA1 [1]: BLOCK ONLY H2O2/TRPA1
Average Ca++ Counts [2]: 2824.0 Counts
inhibition at 100 µM [3]: 59.9%

CC(C)COC(=O)C(C)C [isobutyl isobutyrate]
Block of hydrogen peroxide activation of TRPA1 [1]: BLOCK ONLY H2O2/TRPA1
Average Ca++ Counts [2]: 3383.0 Counts
inhibition at 100 µM [3]: 52%

CC(C)CCO [isopentyl alcohol]
Block of hydrogen peroxide activation of TRPA1 [1]: BLOCK ONLY H2O2/TRPA1
Average Ca++ Counts [2]: 3778.0 Counts
inhibition at 100 µM [3]: 56.7%

CCCCCC(=O)OC(C)C [isopropyl hexanoate]
Block of hydrogen peroxide activation of TRPA1 [1]: BLOCK ONLY H2O2/TRPA1
Average Ca++ Counts [2]: 2862.0 Counts
inhibition at 100 µM [3]: 59.4%

O=C(O)CC(O)C(=O)O (centres unmarked) [malic acid]
Block of hydrogen peroxide activation of TRPA1 [1]: BLOCK ONLY H2O2/TRPA1
Average Ca++ Counts [2]: 5617.5 Counts
inhibition at 100 µM [3]: 47%

COC(=O)c1ccc(O)cc1 [methyl 4-hydroxybenzoate]
Block of hydrogen peroxide activation of TRPA1 [1]: BLOCK ONLY H2O2/TRPA1
Average Ca++ Counts [2]: 4904.5 Counts
inhibition at 100 µM [3]: 53.7%

CCCCC/C=C\C/C=C\CCCCCCCC(=O)OC [methyl linoleate]
Block of hydrogen peroxide activation of TRPA1 [1]: BLOCK ONLY H2O2/TRPA1
Average Ca++ Counts [2]: 3363.5 Counts
inhibition at 100 µM [3]: 52.2%

COC(=O)c1ccccc1 [methylbenzoate]
Average Ca++ Counts: 3817.0 Counts
Block of hydrogen peroxide activation of TRPA1: BLOCK ONLY H2O2/TRPA1
inhibition at 100 µM [4]: 56.2%

CCCCO [n-butyl alcohol]
% Reduction of Hydrogen Peroxide TRPA1 Activation: 57.3%
Average Ca++ Counts: 3009.0 Counts
Block of hydrogen peroxide activation of TRPA1: BLOCK ONLY H2O2/TRPA1

Cc1ccc(C(C)(C)O)cc1 [p-cymen-8-ol]
% Reduction of Hydrogen Peroxide TRPA1 Activation: 50.6%
Average Ca++ Counts: 3476.5 Counts
Block of hydrogen peroxide activation of TRPA1: BLOCK ONLY H2O2/TRPA1

OCc1ccccc1 [phenyl-methanol]
Block of hydrogen peroxide activation of TRPA1 [1]: BLOCK ONLY H2O2/TRPA1
Average Ca++ Counts [2]: 5244.5 Counts
inhibition at 100 µM [3]: 50.5%

CC(C)CC(=O)OCCc1ccccc1 [phenylethyl isovalerate]
Block of hydrogen peroxide activation of TRPA1 [1]: BLOCK ONLY H2O2/TRPA1
Average Ca++ Counts [2]: 3291.5 Counts
inhibition at 100 µM [3]: 53.3%

c1ccc2ncccc2c1 [quinoline]
Block of hydrogen peroxide activation of TRPA1 [1]: BLOCK ONLY H2O2/TRPA1
Average Ca++ Counts [2]: 3440.0 Counts
inhibition at 100 µM [3]: 51.2%

O=C1O[C@H]([C@H](O)CO)C([O-])=C1O.[Na+] [sodium erythorbate]
% Reduction of Hydrogen Peroxide TRPA1 Activation: 54.5%
Average Ca++ Counts: 3204.5 Counts
Block of hydrogen peroxide activation of TRPA1: BLOCK ONLY H2O2/TRPA1

CCC/C=C/C=O [trans-2-Hexenal]
Block of hydrogen peroxide activation of TRPA1: BLOCK ONLY H2O2/TRPA1
inhibition at 400 µM [4]: 52%

NC(N)=O [urea]
% Reduction of Hydrogen Peroxide TRPA1 Activation: 52.4%
Average Ca++ Counts: 5045.5 Counts
Block of hydrogen peroxide activation of TRPA1: BLOCK ONLY H2O2/TRPA1

CCCCCCCCC1CCC(=O)O1 (centres unmarked) [γ-Dodecalactone]
% Reduction of Hydrogen Peroxide TRPA1 Activation: 51%
Block of hydrogen peroxide activation of TRPA1: BLOCK ONLY H2O2/TRPA1

CCCCCCC1(C)CCC(=O)O1 (centres unmarked) [γ-Methyl Decalactone]
Block of hydrogen peroxide activation of TRPA1 [1]: BLOCK ONLY H2O2/TRPA1
% Reduction of Hydrogen Peroxide TRPA1 Activation (antagonist 100 μM against 200 μM hydrogen peroxide): 48%

desoxycholic acid
% Reduction of Hydrogen Peroxide TRPA1 Activation: 56.6%
Average Ca++ Counts: 3058.5 Counts
Block of hydrogen peroxide activation of TRPA1: BLOCK ONLY H2O2/TRPA1
